Assay: refractive index (Na D-line) (dimensionless); xn = mol fraction of the nth substance listed
Conditions: Liquid, Standard Abbe refractometry

Cc1ccc(C)cc1 [1,4-dimethylbenzene] + C1COCCO1
refractive index
Conditions	288.15 K	293.15 K	298.15 K	303.15 K	308.15 K	313.15 K	318.15 K
x2 = 0	1.4985	1.4959	1.4933	1.4907	1.4881	1.4855	1.483
x2 = 0.0716	1.4937	1.4911	1.4884	1.4858	1.4831	1.4805	1.4778
x2 = 0.1445	1.4887	1.4861	1.4834	1.4808	1.4781	1.4754	1.4727
x2 = 0.2132	1.4839	1.4813	1.4786	1.476	1.4733	1.4706	1.468
x2 = 0.2871	1.4787	1.4761	1.4734	1.4708	1.4681	1.4655	1.4628
x2 = 0.3582	1.4736	1.471	1.4684	1.4658	1.4632	1.4606	1.458
x2 = 0.4358	1.468	1.4655	1.4629	1.4604	1.4578	1.4552	1.4526
x2 = 0.5042	1.4629	1.4604	1.4579	1.4554	1.4529	1.4503	1.4478
x2 = 0.5846	1.4569	1.4544	1.452	1.4495	1.447	1.4445	1.442
x2 = 0.6543	1.4516	1.4492	1.4467	1.4443	1.4418	1.4394	1.4369
x2 = 0.7249	1.4462	1.4438	1.4414	1.439	1.4365	1.4341	1.4316
x2 = 0.7923	1.441	1.4386	1.4362	1.4338	1.4314	1.429	1.4266
x2 = 0.8623	1.4355	1.4332	1.4309	1.4286	1.4262	1.4238	1.4214
x2 = 0.9311	1.4301	1.4279	1.4256	1.4234	1.4211	1.4188	1.4165

Cc1cccc(C)c1 [1,3-dimethylbenzene] + C1COCCO1
refractive index
Conditions	288.15 K	293.15 K	298.15 K	303.15 K	308.15 K	313.15 K	318.15 K
x2 = 0	1.4999	1.4974	1.4948	1.4922	1.4896	1.487	1.4844
x2 = 0.0938	1.4933	1.4907	1.488	1.4853	1.4826	1.4799	1.4772
x2 = 0.1532	1.489	1.4864	1.4837	1.4811	1.4783	1.4756	1.4728
x2 = 0.2046	1.4852	1.4826	1.4799	1.4772	1.4745	1.4718	1.4691
x2 = 0.2698	1.4805	1.4779	1.4753	1.4726	1.4699	1.4672	1.4645
x2 = 0.3374	1.4755	1.473	1.4704	1.4677	1.4651	1.4624	1.4597
x2 = 0.4002	1.4709	1.4684	1.4658	1.4632	1.4606	1.458	1.4553
x2 = 0.4714	1.4656	1.4631	1.4606	1.458	1.4555	1.4529	1.4503
x2 = 0.5487	1.4598	1.4574	1.4549	1.4524	1.4498	1.4473	1.4447
x2 = 0.63	1.4536	1.4512	1.4487	1.4462	1.4437	1.4412	1.4387
x2 = 0.7182	1.4468	1.4444	1.442	1.4395	1.4371	1.4346	1.4321
x2 = 0.8035	1.4401	1.4378	1.4354	1.4329	1.4305	1.428	1.4256
x2 = 0.8708	1.4348	1.4325	1.4302	1.4279	1.4255	1.4231	1.4206
x2 = 0.9324	1.4299	1.4277	1.4255	1.4232	1.4209	1.4186	1.4163

Cc1cc(C)cc(C)c1 [1,3,5-trimethylbenzene] + C1COCCO1
refractive index
Conditions	288.15 K	293.15 K	298.15 K	303.15 K	308.15 K	313.15 K	318.15 K
x2 = 0	1.502	1.4995	1.4969	1.4944	1.4918	1.4893	1.4868
x2 = 0.0696	1.4969	1.4942	1.4915	1.4888	1.4861	1.4834	1.4807
x2 = 0.1408	1.4916	1.4889	1.4862	1.4835	1.4807	1.4779	1.4751
x2 = 0.2098	1.4865	1.4838	1.4811	1.4784	1.4756	1.4729	1.4701
x2 = 0.28	1.4812	1.4786	1.4758	1.4731	1.4703	1.4676	1.4648
x2 = 0.3558	1.4755	1.4729	1.4702	1.4675	1.4648	1.4621	1.4593
x2 = 0.4276	1.4701	1.4675	1.4648	1.4622	1.4595	1.4568	1.4542
x2 = 0.5066	1.4641	1.4615	1.4589	1.4563	1.4537	1.451	1.4484
x2 = 0.5801	1.4584	1.4558	1.4532	1.4506	1.448	1.4454	1.4428
x2 = 0.6548	1.4525	1.45	1.4474	1.4449	1.4423	1.4397	1.4371
x2 = 0.7227	1.447	1.4445	1.442	1.4395	1.437	1.4344	1.4318
x2 = 0.7936	1.4412	1.4388	1.4363	1.4338	1.4313	1.4288	1.4263
x2 = 0.8663	1.4354	1.433	1.4306	1.4282	1.4257	1.4233	1.4208
x2 = 0.9319	1.43	1.4277	1.4254	1.4231	1.4208	1.4184	1.4161

C1COCCO1 [1,4-dioxane] + Cc1ccccc1
refractive index
Conditions	288.15 K	293.15 K	298.15 K	303.15 K	308.15 K	313.15 K	318.15 K
x1 = 0.0688	1.4955	1.4927	1.4899	1.487	1.4841	1.4812	1.4783
x1 = 0.1373	1.4914	1.4886	1.4858	1.4829	1.48	1.4771	1.4742
x1 = 0.2112	1.4869	1.4842	1.4814	1.4786	1.4757	1.4729	1.47
x1 = 0.2858	1.4822	1.4795	1.4768	1.474	1.4712	1.4684	1.4655
x1 = 0.3552	1.4775	1.4749	1.4722	1.4695	1.4668	1.464	1.4613
x1 = 0.4361	1.4719	1.4693	1.4667	1.464	1.4614	1.4587	1.456
x1 = 0.5064	1.4668	1.4643	1.4617	1.4591	1.4565	1.4539	1.4512
x1 = 0.5819	1.4611	1.4586	1.4561	1.4536	1.451	1.4484	1.4458
x1 = 0.6506	1.4557	1.4533	1.4508	1.4483	1.4458	1.4433	1.4408
x1 = 0.7212	1.4499	1.4475	1.4451	1.4427	1.4403	1.4378	1.4353
x1 = 0.7903	1.444	1.4417	1.4393	1.437	1.4346	1.4322	1.4298
x1 = 0.864	1.4374	1.4352	1.4329	1.4306	1.4283	1.426	1.4236
x1 = 0.9336	1.431	1.4288	1.4266	1.4244	1.4222	1.4199	1.4176
x1 = 1	1.4245	1.4224	1.4203	1.4182	1.4161	1.4139	1.4117

From the NIST ThermoML archive (doi:10.1021/je800579j)
